Primed or numbered codes have the meaning given here. Where no end group is shown, it is not given here. The star is where a group is joined. 5FAM = O=C1OC2(c3ccc(O)cc3Oc3cc(O)ccc32)c2ccc(C(=O)*)cc21; K(CPQ2) = lysine carrying the CPQ2 quencher; FAM = fluorescent reporter; PEG2′ = not defined here
How the values were obtained:
[1] = test system: proteases in plasma sensed by Probe #102 (cathepsin L); assay: Inhibitor profiling of Probe #102 cleavage in NASH and healthy plasma; assay type: biochemical, mice; details: for effect of inhibitor on signal for NASH or healthy samples: Probe #102
Method: For this experiment, all plasma samples were prepared individually and diluted 1/10e in PBS with inhibitor added directly to the samples. Inhibitor was prepared at 15× concentration to final. Substrates were diluted in DI water at 18 uM, such that the final concentration on the plate would be 6 uM. All samples were prepared such that their last dilution on the plate would not affect the desired final concentration. 10 ul of each individual sample was pipetted into their corresponding wells, and the plate was then spun down in the centrifuge at 1500 RPM for 30 seconds to coat the bottom of each well with the sample. 5 ul of the 18 uM substrate solution was pipetted into each well being used on a 384 well plate, and then the plate was spun down in the centrifuge at 1500 rpm for 30 seconds. The plate was placed immediately in the plate reader at 37° C. for a 30-minute-long fluorescence kinetic read at 485/535 extended gain.
To assess the proteolytic cleavage pattern of Probe #102, samples were tested using a pool of broad inhibitors for serine, cysteine, threonine, MMP and aspartic protease family members (broad inhibitor) to assess general protease activity, AEBSF for serine proteases, E64 for cysteine proteases, CTSi for broad cathepsin inhibition of cathepsins L,S,K and B, or specific inhibitors for cathepsin K (L00625), for cathepsin L (SID) or cathepsin B (CA074).

[2] = cited from earlier work
[3] = test system: carboxylesterase 1, phospholipase A2 and lipoprotein lipase; assay: Spiked recombinant enzymes in human plasma with resorufin oleate as substrate; assay type: biochemical
[4] = test system: caspase activity in hepatitis; assay: Ex vivo FRET probe cleavage in plasma of Jo2 fulminant hepatitis mice; assay type: biochemical; details: plasma 3 hours after Jo2 injection
Method: Fulminant hepatitis is induced after injection intraperitoneal of monoclonal antibody anti-CD95 (Jo2, BD biosciences, 4 ug/animal), and mouse plasma samples were collected 3 hours after Jo2 injection.

COVID-related proteases [5] = assay: Ex vivo FRET probe cleavage in COVID vs healthy K2EDTA and Lithium Heparin plasma; assay type: biochemical; details: K2EDTA and Lithium Heparin plasma sets
[6] = test system: cathepsin and/or MMP protease activities; assay: Ex vivo FRET probe cleavage in plasma: NASH progression, regression, healthy mice; assay type: biochemical; details: K2EDTA plasma at 20 weeks
Excerpt: Plasma samples were collected from all animals at 20 weeks.
The probes showing the most differentiation in NASH were linked to cathepsin and/or MMP protease activities.

NASH-related proteases = assay: Ex vivo FRET probe cleavage in K2EDTA plasma of NASH (CDAHFD) vs healthy (CD) mice; assay type: biochemical; details: n=10 and pooled
Method: All animals were used in accordance with animal care guidelines. Plasma was obtained from these blood samples by centrifugation at 3,500 RPM for 20 min at 4° C. The plasma was stored at −80° C. until it was needed for experimental purposes.
Samples were mixed with protease substrates and quenchers/reporters in 96-well plates. The 96-well plates were read on a Biotech Synergy H1, using 465,535 excitation/emission settings.
A single plasma sample was contacted with the probes for each predetermined protease to provide a multiplex assessment of protease activity in the sample.

Granzyme B = target: T1, Granzyme B (Homo sapiens, UniProt P10144); assay: Inhibition experiments on Probe #647 signal in COVID swab samples; assay type: biochemical; details: healthy vs COVID samples, FIG. 39
T1 construct: from tissue; host or cells: COVID swab samples
T1 sequence (P10144 21-247): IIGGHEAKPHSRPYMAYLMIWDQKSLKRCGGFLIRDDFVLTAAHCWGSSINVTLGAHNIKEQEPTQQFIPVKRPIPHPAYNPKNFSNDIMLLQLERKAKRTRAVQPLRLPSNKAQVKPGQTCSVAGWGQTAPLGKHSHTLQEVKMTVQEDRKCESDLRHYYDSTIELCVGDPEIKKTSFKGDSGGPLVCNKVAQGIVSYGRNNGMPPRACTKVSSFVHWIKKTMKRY

COVID-related proteases [7] = assay: Ex vivo FRET probe cleavage in COVID positive vs negative swab samples; assay type: biochemical

In the case of `NCCc1ccc(S(=O)(=O)F)cc1` [AEBSF], the “decrease of RFU signal by inhibitor, NASH” value ([1]; NASH plasma diluted 1/10 in PBS, Probe #102 6 uM) is reported as 65% and the “decrease of RFU signal by inhibitor, healthy” value ([1]; healthy plasma diluted 1/10 in PBS, Probe #102 6 uM) is reported as 60%.
In the case of `CCCNC(=O)[C@H]1O[C@@H]1C(=O)N[C@H](C(=O)N1CCC[C@H]1C(=O)O)[C@@H](C)CC` [CA074], the “effect of inhibitor on signal for NASH or healthy samples” value (“effect of inhibitor on signal” for short) [1] is reported as “did not significantly decrease signal”.
For `O=c1[nH]c(-c2ccccc2O)nc2ccccc12` [HPQ, 2-(2″-hydroxyphenyl)-4(3H)-quinazolinone], the solubility in water [2] is given as “strictly insoluble in water”.
For `CC(C)C[C@H](NC(=O)[C@H]1O[C@@H]1C(=O)O)C(=O)NCCCCN=C(N)N` [Probe E64, E64], the “effect of inhibitor on signal” value [1] was “decreased NASH signal significantly”.
With `CN1CCN(c2nc(-c3ccc(C(=O)NC4(C(=O)NCC#N)CCCCC4)cc3)cs2)CC1` [Probe L006235] the “effect of inhibitor on signal” value [1] was “did not significantly decrease signal”.
With `CCCC(=O)O` [butyrate] the “suitability as substrate for enzyme detection” value [3] was “promising for detection of broad range of enzymes”.
With “Probe #8: Caspase centric probe (GVDVADGK; not fully specified; 5-FAM, CPQ2 quencher, PEG2, D-Lys-D-Lys-GC)” the “differentiation between healthy and Jo2 samples” value [4] was “show contrast that is specific and sensitive to the Jo2 model”.
For “Probe #12: Caspase centric probe (GDEVDGK; not fully specified; 5-FAM, CPQ2 quencher, PEG2, D-Lys-D-Lys-GC)”, the “differentiation between healthy and Jo2 samples” value [4] was “show contrast that is specific and sensitive to the Jo2 model”.
In the case of “Probe #18: a Neutrophil elastase substrate (GAAPVGK; also: 5-FAM, CPQ2 quencher, PEG2-kk-GC, places not given here)”, the “differential cleavage between COVID and healthy samples” value (COVID-related proteases [5]) is reported as “demonstrated contrast in both sets”.
In the case of “Probe #84: a Furin substrate (GRVKRGLAGK; also: 5-FAM, CPQ2 quencher, PEG2-kk-GC, places not given here)”, the “differential cleavage between COVID and healthy samples” value (COVID-related proteases [5]) is reported as “demonstrated contrast in both sets”.
In the case of “Probe #96: FRET peptide probe of Table 1 ({FAM}-GRPLALWESQG-{K(CPQ2)-PEG2′-dK-Gly-Cys})”, the “differentiation among healthy, regression and NASH samples” value (from here on “differentiation among healthy”) [6] is reported as “can differentiate”.
For “Probe #102: a CTSL sensing probe; FRET peptide probe with fluorescent reporter and quencher ({FAM}-GKPILFFRLKG-{K(CPQ2)-PEG2′-dK-dK-Gly-Cys})”, the “protease to whose activity the probe responds” value ([1]; from inhibitor experiments, FIG. 30) was “specifically responds to the activity of cathepsin L (CTSL)”, the “attribution of measured rate of fluorescence increase” value (NASH-related proteases) was “can be ascribed to protease activity and to NASH disease” and the “differentiation among healthy” value [6] was “can differentiate”.
For “Probe #428: FRET peptide probe of Table 1 ({FAM}-GDRRKKLTQG-{K(CPQ2)-PEG2′-dK-dK-Gly-Cys})”, the “differentiation among healthy” value [6] was “can differentiate”.
With “Probe #462: a MMP8 substrate (GKKAKRNALG; also: FAM, K(CPQ2), PEG2, D-Lys-D-Lys-GC, places not given here)” the “differential cleavage between COVID and healthy samples” value (COVID-related proteases [5]) was “demonstrated contrast in both sets”.
In the case of “Probe #492: FRET peptide probe of Table 1 ({FAM}-GQRANSIRVTWG-{K(CPQ2)-PEG2′-dK-dK-Gly-Cys})”, the “attribution of measured rate of fluorescence increase” value (NASH-related proteases) is reported as “can be ascribed to protease activity and to NASH disease” and the “differentiation among healthy” value [6] is reported as “can differentiate”.
In the case of “Probe #520: FRET peptide probe of Table 1 (5FAM-GKPISLISSG-{K(CPQ2)-PEG2′-Gly-Cys})”, the “differentiation among healthy” value [6] is reported as “can differentiate”.
In the case of “Probe #647: Caspase centric probe; signal measures the activity of protease Granzyme B (GAIEPDSGG; also: 5FAM, Lys(CPQ2), PEG2, D-Lys-D-Lys, GC-NH2, places not given here)”, the “protease whose activity the probe signal measures” value (Granzyme B) is reported as “measures the activity of protease Granzyme B”, the “differentiation between healthy and Jo2 samples” value [4] is reported as “show contrast that is specific and sensitive to the Jo2 model” and the “differentiation among healthy” value [6] is reported as “can differentiate”. The “number of active samples, COVID+” value (COVID-related proteases [7]; adjusted RFU across timepoints) was 7 samples, the “number of active samples, COVID-” value (COVID-related proteases [7]; adjusted RFU across timepoints) was 1 samples and the “differentiation between COVID+ and COVID- samples” value (COVID-related proteases [7]; swabs in saline) was “key differentiator”.
For resorufin oleate, the “suitability as substrate for enzyme detection” value [3] was “promising for detection of broad range of enzymes”.

— patent publication US20250297300A1, “DETECTION, STAGING, MONITORING AND TREATING A DISEASE OR A CONDITION” (SUNBIRD BIO, INC., priority 2021, published 2025)
